EP0252380B1, “Antibiotic LL-E19020 alpha and beta” (AMERICAN CYANAMID COMPANY, priority 1986, dated 1988)
In brackets after ≈: the same amount, converted by molar mass. Marks after values point to notes of the source that are not given here.

Tests used:
Pasteurella haemolytica = test: Minimum inhibitory concentration by agar dilution (Table VI); format: cell-based; conditions: 3 strains tested
[1] = test system: Streptococcus pyogenes C203; test: In vivo antibacterial activity in infected mice (Table III); conditions: S. pyogenes C203, 30 minutes before infection
Morganella morganii = test: In vitro antibacterial activity, standard agar dilution method (Table II); format: cell-based; conditions: strain VGH-84-71
[2] = test system: Staphylococcus aureus Smith; test: In vivo antibacterial activity in infected mice (Table III); conditions: S. aureus Smith, 30 minutes before infection
Klebsiella pneumoniae = test: In vitro antibacterial activity, standard agar dilution method (Table II); format: cell-based; conditions: strain AD
Staphylococcus aureus = test: as above; format: cell-based
[3] = Weight gain and feed efficiency of broiler chicks (Example 6, Table IX); format: in vivo, Peterson X Arbor Acres chicks; conditions: for Wg Gains And Feed Efficiency % Improvement Over Controls FEED/GAIN: control 1.41
Escherichia coli = test: Minimum inhibitory concentration by agar dilution (Table VI); format: cell-based; conditions: 2 strains tested
Salmonella choleraesuis = test: as above; format: cell-based; conditions: 2 strains tested
Streptococcus agalactiae = test: as above; format: cell-based; conditions: 4 strains tested
[4] = test system: Streptococcus sp. (β-hemolytic); test: In vitro antibacterial activity, standard agar dilution method (Table II); format: cell-based
Pseudomonas aeruginosa = test: as above; format: cell-based; conditions: strain 12-4-4
Bacteroides fragilis = test: as above; format: cell-based; conditions: strain NYC 77-1
[5] = Growth of chickens and efficiency of feed utilization (Example 5, Table VIII); format: in vivo, Peterson X Arbor Acres chicks; conditions: for Feed/Gain 0-1 Wk: control 1.21; for Feed/Gain 0-2 Wk: control 1.33; for Feed/Gain 0-3 Wk: control 1.43
Method: In this test one day old Peterson X Arbor Acres chicks are sorted into equal weight groups of 5 males and 5 females per cage. Cages are randomized to treatment groups with six replicates per treatment. Each compound is tested at 50 and 100 ppm in the diet and evaluated against chicks receiving a non-medicated diet.
The chicks are weighed at the start of the test and at 1 week intervals thereafter to the conclusion of said test. The chicks are given free access to feed and water during the entire test period. The feed is weighed when provided to the chicks and excess feed collected and weighed when the cages are cleaned.
The poultry diet employed in the test is as follows: Vitamin-amino acid premix 0.5% Trace minerals 0.1% Sodium chloride 0.3% Dicalcium phosphate 1.2% Ground limestone 0.5% Stabilized fat 4.0% Dehydrated alfalfa, 17% protein 2.0% Corn gluten meal, 41% protein 5.0% Menhaden fish meal, 60% protein 5.0% Soybean oil meal, 44% protein 30.0% Ground yellow corn, fine to 100.0%
The vitamin-amino acid premix in the above feed composition is prepared from the following formulation. The expressions of quantity relate to units per kilogram of the finished feed compositions. Butylated hydroxy toluene 125.0 mg d1-Methionine 500.0 mg Vitamin A 3300.0 I.U. Vitamin D₃ 1100.0 I.C.U. Riboflavin 4.4 mg Vitamin E 2.2 I.U. Niacin 27.5 mg Panthothenic acid 8.8 mg Choline chloride 500.0 mg Folic acid 1.43 mg Menadione sodium bisulfate 1.1 mg Vitamin B₁₂ 11.0 mcg Ground yellow corn, fine to […]

Serratia marcescens = test: In vitro antibacterial activity, standard agar dilution method (Table II); format: cell-based; conditions: strain K-84-18
Clostridium perfringens = format: cell-based; conditions: strain ATCC 13124
[6] = single subcutaneous dose 4 mg/kg
[7] = single subcutaneous dose 16 mg/kg
[8] = single subcutaneous dose 64 mg/kg

C/C=C/C=C/[C@@H]1O[C@](O)([C@H](CO[C@H]2C[C@H](OC)[C@H](O[C@@H]3C[C@H](OC)[C@@H](O[C@H]4C[C@H](OC)[C@H](O)[C@H](C)O4)[C@H](C)O3)[C@H](C)O2)C(=O)NC/C=C/C=C(\C)[C@H](OC)[C@@H](C)[C@@H]2C[C@H](O)[C@@H](/C=C/C=C/C=C\C(=O)O)O2)[C@@H](O)[C@H](OC(=O)Cc2ccccc2)C1(C)C [LL-E19020 beta]
MIC (Pasteurella haemolytica): 16 µg/mL (≈ 13 µM)
Survival Ratios 7 Days After Infection [1, 6]: 2/5
Survival Ratios 7 Days After Infection ([1]; single subcutaneous dose 8 mg/kg): 3/5
Survival Ratios 7 Days After Infection [1, 7]: 5/5
Survival Ratios 7 Days After Infection ([1]; single subcutaneous dose 32 mg/kg): 5/5
Survival Ratios 7 Days After Infection [1, 8]: 5/5
Minimal Inhibitory Concentration (Morganella morganii): >128 µg/mL
Survival Ratios 7 Days After Infection [2, 6]: 1/5
Survival Ratios 7 Days After Infection [2, 7]: 1/5
Survival Ratios 7 Days After Infection [2, 8]: 1/5
Survival Ratios 7 Days After Infection ([2]; single subcutaneous dose 256 mg/kg): 1/5
Minimal Inhibitory Concentration (Klebsiella pneumoniae): >128 µg/mL
Minimal Inhibitory Concentration (Staphylococcus aureus; strain ATCC 25923): > 256 µg/mL
Minimal Inhibitory Concentration (Staphylococcus aureus; strain CMC-83-127): > 128 µg/mL
Minimal Inhibitory Concentration (Staphylococcus aureus; strain CMC-83-131): > 128 µg/mL
Minimal Inhibitory Concentration (Staphylococcus aureus; strain CMC-83-132): > 128 µg/mL
Minimal Inhibitory Concentration (Staphylococcus aureus; strain SSC-82-57): > 128 µg/mL
Minimal Inhibitory Concentration (Staphylococcus aureus; strain Smith): > 128 µg/mL
Minimal Inhibitory Concentration (Staphylococcus aureus; strain VGH-84-45): > 128 µg/mL
Wg Gains And Feed Efficiency % Improvement Over Controls COMBINED ([3]; 12.5 PPM in diet): 2.6%
Wg Gains And Feed Efficiency % Improvement Over Controls FEMALES ([3]; 12.5 PPM in diet): 6.0%
Wg Gains And Feed Efficiency % Improvement Over Controls MALES ([3]; 12.5 PPM in diet): 0%
Wg Gains And Feed Efficiency % Improvement Over Controls FEED/GAIN ([3]; 12.5 PPM in diet): 1.33**
Wg Gains And Feed Efficiency % Improvement Over Controls COMBINED ([3]; 25 PPM in diet): 3.4%
Wg Gains And Feed Efficiency % Improvement Over Controls FEMALES ([3]; 25 PPM in diet): 5.1%
Wg Gains And Feed Efficiency % Improvement Over Controls MALES ([3]; 25 PPM in diet): 2.4%
Wg Gains And Feed Efficiency % Improvement Over Controls FEED/GAIN ([3]; 25 PPM in diet): 1.38*
Wg Gains And Feed Efficiency % Improvement Over Controls COMBINED ([3]; 50 PPM in diet): 2.2%
Wg Gains And Feed Efficiency % Improvement Over Controls FEMALES ([3]; 50 PPM in diet): 4.6%
Wg Gains And Feed Efficiency % Improvement Over Controls MALES ([3]; 50 PPM in diet): 0%
Wg Gains And Feed Efficiency % Improvement Over Controls FEED/GAIN ([3]; 50 PPM in diet): 1.38*
Wg Gains And Feed Efficiency % Improvement Over Controls COMBINED ([3]; 100 PPM in diet): 4.5%
Wg Gains And Feed Efficiency % Improvement Over Controls FEMALES ([3]; 100 PPM in diet): 7.2%
Wg Gains And Feed Efficiency % Improvement Over Controls MALES ([3]; 100 PPM in diet): 1.7%
Wg Gains And Feed Efficiency % Improvement Over Controls FEED/GAIN ([3]; 100 PPM in diet): 1.34**
Wg Gains And Feed Efficiency % Improvement Over Controls COMBINED ([3]; 200 PPM in diet): 2.7%
Wg Gains And Feed Efficiency % Improvement Over Controls FEMALES ([3]; 200 PPM in diet): 1.4%
Wg Gains And Feed Efficiency % Improvement Over Controls MALES ([3]; 200 PPM in diet): 4.2%
Wg Gains And Feed Efficiency % Improvement Over Controls FEED/GAIN ([3]; 200 PPM in diet): 1.35**
MIC (Escherichia coli): ≧ 256 µg/ml
MIC (Salmonella choleraesuis): > 256 µg/mL
MIC (Streptococcus agalactiae): 2 to 4 µg/mL
Minimal Inhibitory Concentration ([4]; strain C203): 0.5 µg/mL
Minimal Inhibitory Concentration ([4]; strain VGH-84-60): 0.25 µg/mL
Minimal Inhibitory Concentration ([4]; strain VGH-84-61): 0.5 µg/mL
Minimal Inhibitory Concentration ([4]; strain VGH-84-62): 0.5 µg/mL
Minimal Inhibitory Concentration ([4]; strain VGH-84-63): 0.12 µg/mL
Minimal Inhibitory Concentration ([4]; strain VGH-84-64): 0.12 µg/mL
Minimal Inhibitory Concentration (Pseudomonas aeruginosa): >128 µg/mL
Minimal Inhibitory Concentration (Bacteroides fragilis): >128 µg/mL
Weight Gains % Improvement over Controls 0-1 Wk ([5]; 50 ppm in the diet): 12.7** %
Weight Gains % Improvement over Controls 0-2 Wk ([5]; 50 ppm in the diet): 4.5* %
Weight Gains % Improvement over Controls 0-3 Wk ([5]; 50 ppm in the diet): 5.3* %
Feed/Gain 0-1 Wk ([5]; 50 ppm in the diet): 1.11*
Feed/Gain 0-2 Wk ([5]; 50 ppm in the diet): 1.31
Feed/Gain 0-3 Wk ([5]; 50 ppm in the diet): 1.40
Weight Gains % Improvement over Controls 0-1 Wk ([5]; 100 ppm in the diet): 10.7* %
Weight Gains % Improvement over Controls 0-2 Wk ([5]; 100 ppm in the diet): 5.1* %
Weight Gains % Improvement over Controls 0-3 Wk ([5]; 100 ppm in the diet): 5.9** %
Feed/Gain 0-1 Wk ([5]; 100 ppm in the diet): 1.13*
Feed/Gain 0-2 Wk ([5]; 100 ppm in the diet): 1.29
Feed/Gain 0-3 Wk ([5]; 100 ppm in the diet): 1.38
efficiency of feed utilization (statement in words) ([5]; over unmedicated controls): increased the efficiency of feed utilization
weight gains of chicks (statement in words) ([5]; over unmedicated controls): improved the weight gains of chicks
Minimal Inhibitory Concentration (Serratia marcescens): >128 µg/mL
Minimal Inhibitory Concentration (Clostridium perfringens): 4 µg/mL
